Consider two compounds from patent US20060088874A1, “Methods and kits for detecting mutations” (Promega Corporation, priority 2004, published 2006).

Like-named read-outs stand apart in the source and are kept apart here.

For data set [1], the system named is mtDNA (Δ-mtDNA4977 deletion). It counts as in vivo, C57BL/6 mice. The settings on record: old age paraquat-treated group, three mice. The protocol: […] mice were housed and inbred at the University of Wisconsin, with an average life span ˜30 months. Four groups of three mice were included in the study: 5-month old mice (young control or YC); 5-month old mice treated with paraquat; 24-month old mice (old age); and 24-month old mice treated with paraquat. Paraquat-treated animals received a single intraperitoneal injection of 50 mg/kg body weight dissolved in PBS 24 hours after their last feeding. Each mouse was sacrificed by cervical dislocation.
The entire liver from each mouse was dissected, washed with PBS, placed in a 1.5 ml Ependorf tube, snap frozen in liquid nitrogen, and stored at −80° C. DNA was prepared from the mouse liver tissue by using the DNA-IQ Tissue and Hair Extraction Kit (Promega Corporation, Madison, Wis.) and was quantified using the PicoGreen dsDNA Quantitative Kit (Molecular Probes, Eugene, Oregon) following manufacturers protocols.
Based on the mouse mtDNA sequence, four fluorescence labeled primer pairs were designed to detect both wildtype sequences and mtDNA deletions. […]
Separation and detection of amplified fragments was performed on an ABI PRISM® 3100 Genetic Analyzer following the manufacturer's protocol (Applied Biosystems, Foster City, Calif.). Data was analyzed with the GeneScan and Genotyper computer software packages (Applied Biosystems). […]

For data set [2], the system named is mononucleotide repeat loci (mBat markers). The data set is classed as in vivo, C57BL/6 mice.
The test system of data set [3] is microsatellite markers in human fibroblast cell line #AG01522.
Method: human fibroblast cell line #AG01522 from Coriell Cell Repository were cultured in MEM Eagle-Earle BSS 2× concentration of essential and non-essential amino acids and vitamins with 2 mM L-glutamine, 10% fetal bovine serum, 0.5 Units/ml of penicillin, 0.5 μg/ml of streptomycin. Cell cultures were grown at 37° C. and 5% CO2 under sterile conditions and split at a ratio of 1:5 when cells were confluent by releasing cells with trypsin-EDTA treatment. […] Cells were pelleted and DNA extracted.
Mutant alleles were identified by small-pool PCR as described in Example B above using primer pairs specific for microsatellite markers (Tables 2 and 7) including: (1) mononucleotide repeat markers (NR-21, NR-24, BAT-25, BAT-26 and MONO-27); (2) extended mononucleotide repeat markers (hBAT-51d, hBAT-52a, hBAT-53c, hBAT59a, hBAT-60a and hBAT-62); (3) tetranucleotide repeat markers on autosomal chromosomes (D7S3070, D7S3046, D7S1808, D10S1426 and D3S2432); (4) tri-, tetra- and penta-nucleotide repeats on the Y chromosome (DYS391, DYS389 I, DYS389 II, DYS438, DYS437, DYS19, DYS392, DYS393, DYS390, and DYS385); and (5) penta-nucleotide repeats Penta B, C, D, and E (Bacher, et al. 1999.

Turning to `C[n+]1ccc(-c2cc[n+](C)cc2)cc1` [Paraquat], in data set [1], the “Δ-mtDNA4977 detected (mice of group)” value is on record as “All three mice in the old age paraquat-treated group showed Δ-mtDNA4977”. In addition, the “Mutation Freq” value is listed as 0.000 in data set [2] (mBat-24, Old w/Paraquat); 0.002 in data set [2] (mBat-24, Young w/ Paraquat); 0.000 in data set [2] (mBat-26, Old w/Paraquat); 0.000 in data set [2] (mBat-26, Young w/ Paraquat); 0.000 in data set [2] (mBat-30, Old w/Paraquat); 0.000 in data set [2] (mBat-30, Young w/ Paraquat). Also, the “Mutation Freq” value came out at 0.000 in data set [2] (mBat-37, Old w/Paraquat); 0.001 in data set [2] (mBat-37, Young w/ Paraquat); 0.000 in data set [2] (mBat-49, Old w/Paraquat); 0.000 in data set [2] (mBat-51a, Old w/Paraquat); 0.000 in data set [2] (mBat-51b, Old w/Paraquat); 0.000 in data set [2] (mBat-52, Old w/Paraquat). In addition, the “Mutation Freq” value in data set [2] (mBat-59, Old w/Paraquat) turned out to be 0.013; in data set [2] (mBat-59, Young w/ Paraquat), 0; in data set [2] (mBat-61a, Old w/Paraquat), 0.005; in data set [2] (mBat-64, Old w/Paraquat), 0.019; in data set [2] (mBat-64, Young w/ Paraquat), 0; in data set [2] (mBat-66, Old w/Paraquat), 0.018. Moreover, the “Mutation Freq” value was 0 in data set [2] (mBat-66, Young w/ Paraquat); 0.051 in data set [2] (mBat-67, Old w/Paraquat); 0 in data set [2] (mBat-67, Young w/ Paraquat). For the same compound, the “# Mutants” value in data set [2] (mBat-24, Old w/Paraquat, 318 alleles) was found to be 0; in data set [2] (mBat-24, Young w/ Paraquat, 648 alleles), 1; in data set [2] (mBat-26, Old w/Paraquat, 340 alleles) it was 0; in data set [2] (mBat-26, Young w/ Paraquat, 457 alleles) it was 0; in data set [2] (mBat-30, Old w/Paraquat, 344 alleles) it was 0; in data set [2] (mBat-30, Young w/ Paraquat, 704 alleles), 0. For the same compound, the “# Mutants” value came to 0 in data set [2] (mBat-37, Old w/Paraquat, 306 alleles); 1 in data set [2] (mBat-37, Young w/ Paraquat, 992 alleles); 0 in data set [2] (mBat-49, Old w/Paraquat, 194 alleles); 0 in data set [2] (mBat-51a, Old w/Paraquat, 240 alleles); 0 in data set [2] (mBat-51b, Old w/Paraquat, 186 alleles); 0 in data set [2] (mBat-52, Old w/Paraquat, 44 alleles). For the same compound, the “# Mutants” value came out at 6 in data set [2] (mBat-59, Old w/Paraquat, 448 alleles); 4 in data set [2] (mBat-59, Young w/ Paraquat, 636 alleles); 2 in data set [2] (mBat-61a, Old w/Paraquat, 428 alleles); 8 in data set [2] (mBat-64, Old w/Paraquat, 412 alleles); 1 in data set [2] (mBat-64, Young w/ Paraquat, 443 alleles); 8 in data set [2] (mBat-66, Old w/Paraquat, 448 alleles). Also, the “# Mutants” value in data set [2] (mBat-66, Young w/ Paraquat, 592 alleles) is 3; in data set [2] (mBat-67, Old w/Paraquat, 394 alleles), 20; in data set [2] (mBat-67, Young w/ Paraquat, 334 alleles), 1. The “mutations in loci mBAT-24, mBAT-26, mBat-30, or mBAT-37” value in data set [2] (old paraquat-treated group, out of 1608 alleles) is “no mutations”. In data set [2] (paraquat-treated old age group, SP-PCR, (25/1649)), the “mutations in mononucleotide repeat alleles assayed, loci mBAT-59, mBAT-64, mBAT-66 or mBAT-67” value is “over 1.8%”.
Take `OO` [hydrogen peroxide]: in data set [3] (cells exposed to 0.1 to 1.2 mM hydrogen peroxide for 1 hour, 3 days recovery), the “mutations in extended mononucleotide repeats, Y-STRs and A-rich pentanucleotide repeats” value was “Mutations were detected”. Besides, the “mutations in short mononucleotide repeat markers NR-21, NR-24, BAT-25, BAT-26 or MONO-27” value in data set [3] (cells exposed to hydrogen peroxide, 0/1,526 alleles) is “No mutations”.
